The test concerns the target T1, EDAR (endogenous, SUNE1 cells) (Homo sapiens, UniProt Q9UNE0).
T1 construct: endogenous protein in SUNE1 cells, detected by Western blot
T1 sequence (Q9UNE0 27-448): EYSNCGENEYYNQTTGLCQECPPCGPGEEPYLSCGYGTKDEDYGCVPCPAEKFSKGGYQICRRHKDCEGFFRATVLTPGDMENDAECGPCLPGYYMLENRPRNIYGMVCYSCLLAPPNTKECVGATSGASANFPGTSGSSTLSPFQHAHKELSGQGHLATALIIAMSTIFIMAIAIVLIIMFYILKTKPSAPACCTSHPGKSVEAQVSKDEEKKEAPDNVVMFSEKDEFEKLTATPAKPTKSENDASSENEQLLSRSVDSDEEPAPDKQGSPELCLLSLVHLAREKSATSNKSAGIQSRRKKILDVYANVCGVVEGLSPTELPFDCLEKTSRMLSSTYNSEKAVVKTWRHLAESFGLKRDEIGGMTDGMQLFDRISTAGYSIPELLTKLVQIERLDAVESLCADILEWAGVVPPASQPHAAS
Nature of the test: CETSA (Western blot). It counts as cell-based. As to conditions: 10 µM vinburnine, intact SUNE1 cells, 12 h; six temperatures, 10 min. (In general: A western blot detects proteins with antibodies after separation by electrophoresis.)

The record followed here is article PMC12697895, “Vinburnine Sensitizes Radiotherapy Efficacy in Nasopharyngeal Carcinoma by Triggering Pyroptosis and Immune Responses via Activation of EDAR‐NFκB Pathway” (Advanced Science, 2025).

Molecules are shown by their SMILES.

In the case of `CC[C@]12CCCN3CCc4c(n(c5ccccc45)C(=O)C1)[C@@H]32` [vinburnine], the “CETSA (Western blot)” value was “EDAR was more stable in vinburnine‐pretreated samples than in control samples at various temperatures”.
